We go through three molecules from article PMC12648460, “Substitution of CH3 by CH2F in 2‐Methylerythritol Cyclodiphosphate Triggers Potent Inhibition of IspG with Concomitant Fluoride Ion Expulsion” (Chemistry (Weinheim an Der Bergstrasse, Germany), 2025).

What all share (type): biochemical
Assay [1] addresses T1, IspG (GcpE) (Escherichia coli, UniProt P62620).
T1 construct: active dimeric form
The assay is described as follows: anaerobic NADPH consumption assay of purified IspG with […] MEcPP.

Assay [2] concerns the target T1, IspG (GcpE). The assay is described as follows: anaerobic NADPH consumption assay ([…] nm), […] min preincubation with reduction system; […]-NMR of fluoride release.
Assay [3] deals with T1, IspG (GcpE). In words: anaerobic NADPH consumption assay, preincubation with reduction system.

T1 sequence (P61949 2-176): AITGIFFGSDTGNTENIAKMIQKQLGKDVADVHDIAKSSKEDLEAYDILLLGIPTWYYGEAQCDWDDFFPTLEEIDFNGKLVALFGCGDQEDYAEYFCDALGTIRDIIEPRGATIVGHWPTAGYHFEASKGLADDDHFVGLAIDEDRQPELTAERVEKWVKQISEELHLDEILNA
T1 sequence (P28861 2-248, further chain): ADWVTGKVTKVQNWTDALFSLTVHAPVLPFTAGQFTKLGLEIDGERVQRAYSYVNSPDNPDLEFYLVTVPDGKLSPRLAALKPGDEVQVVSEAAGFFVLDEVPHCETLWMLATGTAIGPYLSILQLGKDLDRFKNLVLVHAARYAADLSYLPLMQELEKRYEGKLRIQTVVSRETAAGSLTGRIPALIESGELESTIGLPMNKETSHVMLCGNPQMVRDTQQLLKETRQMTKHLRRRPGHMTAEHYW
T1 sequence (P62620 whole entry): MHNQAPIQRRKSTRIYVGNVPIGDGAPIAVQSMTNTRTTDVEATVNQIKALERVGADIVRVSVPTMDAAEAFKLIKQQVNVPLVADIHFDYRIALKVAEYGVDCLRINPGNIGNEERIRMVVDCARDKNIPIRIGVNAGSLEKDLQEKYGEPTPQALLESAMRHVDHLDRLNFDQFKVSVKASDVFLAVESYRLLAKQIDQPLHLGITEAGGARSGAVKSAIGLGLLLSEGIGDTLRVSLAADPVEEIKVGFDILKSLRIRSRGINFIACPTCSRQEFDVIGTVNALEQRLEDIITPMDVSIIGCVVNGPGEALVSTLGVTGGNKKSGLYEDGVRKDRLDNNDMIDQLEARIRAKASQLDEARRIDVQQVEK

`C[C@@]1(CO)OP(=O)(O)OP(=O)(O)OC[C@H]1O` [compound 1, 2-C-methyl-D-erythritol 2,4-cyclodiphosphate]: in assay [1], the “anaerobic NADPH consumption assay of purified IspG with 250 μM MEcPP” value is recorded as ~ 200 nmol min−1 mg−1. The term IC50 denotes the concentration that gives 50% inhibition. Read a low IC50 as higher potency. Turning to `O=P1(O)OC[C@@H](O)[C@@](CO)(CF)OP(=O)(O)O1` [compound 8, monofluoromethyl-D-erythritol cyclodiphosphate], it took 10.4 ± 1 µM to reach half-maximal inhibition in assay [2] (IC50). In assay [3], `C=C[C@@]1(CO)OP(=O)(O)OP(=O)(O)OC[C@H]1O` [VEcPP, 2-C-vinyl-D-erythritol cyclodiphosphate] showed an IC50 of 19.5 ± 1.3 µM.
